This is an account of results in patent US20070004763A1, “AMINOQUINOLINE AND AMINOQUINAZOLINE KINASE MODULATORS” (priority 2005, published 2007).

The assay has as its target T1, TrkB (Homo sapiens, UniProt Q16620).
T1 construct: purchased Upstate 14-507M
As to the kind of experiment: Trk B Fluorescence Polarization Kinase Assay. The settings on record: 150 uM ATP, 50 nM TrkB; uncertainty ±10%. Type of assay: biochemical. On the procedure: The compounds of the present invention are also specific inhibitors of TrkB. Selection of preferred compounds of Formula I for use as TrkB inhibitors was performed in the following manner. The TrkB assay utilized the fluorescein-labeled phosphopeptide and the anti-phosphotyrosine antibody included in the Panvera Phospho-Tyrosine Kinase Kit (Green) supplied by Invitrogen. When TrkB phosphorylated poly Glu4Tyr, the fluorescein-labeled phosphopeptide was displaced from the anti-phosphotyrosine antibody by the phosphorylated poly Glu4Tyr, thus decreasing the FP value. The TrkB kinase reaction was incubated at room temperature for 30 minutes under the following conditions: 50 nM TrkB (Upstate, catalog #14-507M), 20 ug/mL poly Glu4Tyr, 150 uM ATP, 5 mM MgCl2, 1% compound in DMSO. The kinase reaction was stopped with the addition of EDTA. The fluorescein-labeled phosphopeptide and the anti-phosphotyrosine antibody were added and incubated for 30 minutes at room temperature. Data points were an average of triplicate samples. Inhibition and IC50 data analysis were done with GraphPad Prism using a non-linear regression fit with a multiparamater, sigmoidal dose-response (variable slope) equation.

T1 sequence (Q16620 526-822 limits assumed): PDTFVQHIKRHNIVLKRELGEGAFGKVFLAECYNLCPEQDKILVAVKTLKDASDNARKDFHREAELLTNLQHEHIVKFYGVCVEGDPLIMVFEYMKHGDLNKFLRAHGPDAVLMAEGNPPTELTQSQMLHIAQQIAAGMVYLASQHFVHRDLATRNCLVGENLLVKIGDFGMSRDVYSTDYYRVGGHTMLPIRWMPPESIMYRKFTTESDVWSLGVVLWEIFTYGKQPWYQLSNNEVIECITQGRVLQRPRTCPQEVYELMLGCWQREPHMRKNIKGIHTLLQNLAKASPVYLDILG

As for `COc1cc2ncnc(N3CCCCC3COC(=O)Nc3ccc(C(C)C)cc3)c2cc1OC` (centres unmarked) [Compound 33, (4-Isopropyl-phenyl)-carbamic acid 1-(6,7-dimethoxy-quinazolin-4-yl)-piperidin-2-ylmethyl ester], inhibition was half-maximal at 5 µM (IC50).
`CC(C)c1ccc(NC(=O)OC2CCN(c3ccnc4ccccc34)C2)cc1` (centres unmarked) [Compound 34] registered an IC50 of 7.6 µM.
`COc1cc2ncnc(N3CCC(NC(=O)Cc4ccc(C(C)C)cc4)C3)c2cc1OC` (centres unmarked) [Compound 35, N-[1-(6,7-Dimethoxy-quinazolin-4-yl)-pyrrolidin-3-yl]-2-(4-isopropyl-phenyl)-acetamide] returned an IC50 of 6.5 µM. This IC50 and that of the compound before are within 1.5-fold of each other.
For the compound `COc1cc2ncc(C#N)c(N3CCC(OC(=O)Nc4ccc(C(C)C)cc4)C3)c2cc1OC` (centres unmarked) [Compound 37, (4-Isopropyl-phenyl)-carbamic acid 1-(3-cyano-6,7-dimethoxy-quinolin-4-yl)-pyrrolidin-3-yl ester], half-maximal inhibition (IC50) was put at 8.48 µM.
To `CC(C)Oc1ccc(NC(=O)NC2CCN(c3ccnc4ccccc34)C2)cc1` (centres unmarked) [Compound 38, (4-Isopropoxy-phenyl)-3-(1-quinolin-4-yl)-pyrrolidin-3-yl-urea] belongs 26.8 µM; to `CC(C)Oc1ccc(NC(=O)OC2CCN(c3ccnc4ccccc34)C2)cc1` (centres unmarked) [Compound 39], 9.1 µM; to `COc1cc2ncc(C#N)c(N3CCC(OC(=O)Nc4ccc(OC(C)C)cc4)CC3)c2cc1OC` [Compound 40, (4-Isopropoxy-phenyl)-carbamic acid 1-(3-cyano-6,7-dimethoxy-quinolin-4-yl)-piperidin-4-yl ester], 11.8 µM.
With `CC(C)Oc1ccc(NC(=O)OC2CCN(c3ccnc4ccccc34)CC2)cc1` [Compound 41] the figure was 14 µM; with `COc1cc2ncc(C#N)c(N3CCC(OC(=O)Nc4ccc(C(C)C)cc4)CC3)c2cc1OC` [Compound 42, (4-Isopropyl-phenyl)-carbamic acid 1-(3-cyano-6,7-dimethoxy-quinolin-4-yl)-piperidin-4-yl ester], over 42 µM.
The compound `COc1cc2ncnc(N3CCC(NC(=O)Nc4ccc(N5CCOCC5)cc4)C3)c2cc1OC` (centres unmarked) [Compound 43, 1-[1-(6,7-Dimethoxy-quinazolin-4-yl)-pyrrolidin-3-yl]-3-(4-morpholin-4-yl-phenyl)-urea] registered an IC50 of 40.6 µM.
Compound `COc1cc2ncnc(N3CCC(NC(=O)Nc4ccc(OC5CCC5)nc4)C3)c2cc1OC` (centres unmarked) [Compound 44, 1-(6-Cyclobutoxy-pyridin-3-yl)-3-[1-(6,7-dimethoxy-quinazolin-4-yl)-pyrrolidin-3-yl]-urea] had an IC50 of 4.88 µM.
As for `COc1cc2ncnc(N3CCC(NC(=O)Nc4ccc(OC5CCCC5)nc4)C3)c2cc1OC` (centres unmarked) [Compound 45, 1-(6-Cyclopentyloxy-pyridin-3-yl)-3-[1-(6,7-dimethoxy-quinazolin-4-yl)-pyrrolidin-3-yl]-urea], the IC50 was determined as 11.8 µM.
Regarding `COc1cc2ncnc(N3CCC(NC(=O)Nc4ccc(N5CCCC5)nc4)C3)c2cc1OC` (centres unmarked) [Compound 46, 1-[1-(6,7-Dimethoxy-quinazolin-4-yl)-pyrrolidin-3-yl]-3-(6-pyrrolidin-1-yl-pyridin-3-yl)-urea], inhibition was half-maximal at 24.8 µM (IC50).
Regarding `COc1cc2ncnc(N3CCC(NC(=O)Nc4ccc(N5CCCCC5)cc4)C3)c2cc1OC` (centres unmarked) [Compound 47, 1-[1-(6,7-Dimethoxy-quinazolin-4-yl)-pyrrolidin-3-yl]-3-(4-piperidin-1-yl-phenyl)-urea], half-maximal inhibition (IC50) required 12 µM.
With `COc1cc2ncnc(N3CCC(NC(=O)Nc4ccc(Cl)cc4)C3)c2cc1OC` (centres unmarked) [Compound 48, 1-(4-Chloro-phenyl)-3-[1-(6,7-dimethoxy-quinazolin-4-yl)-pyrrolidin-3-yl]-urea] the figure was 16 µM.
`COc1cc2ncnc(N3CCC(NC(=O)Nc4ccc(N5CCCC5)cc4)C3)c2cc1OC` (centres unmarked) [Compound 49, 1-[1-(6,7-Dimethoxy-quinazolin-4-yl)-pyrrolidin-3-yl]-3-(4-pyrrolidin-1-yl-phenyl)-urea] came in with a half-inhibitory concentration (IC50) of 3.88 µM.
Take `COc1cc2ncnc(N3CCC(NC(=O)Nc4ccc(C5CCCCC5)cc4)C3)c2cc1OC` (centres unmarked) [Compound 50, 1-(4-Cyclohexyl-phenyl)-3-[1-(6,7-dimethoxy-quinazolin-4-yl)-pyrrolidin-3-yl]-urea]: the IC50 was over 46 µM.
With `COc1cc2ncnc(N3CCC(NC(=O)Nc4ccc(Oc5ccccc5)cc4)C3)c2cc1OC` (centres unmarked) [Compound 51, 1-[1-(6,7-Dimethoxy-quinazolin-4-yl)-pyrrolidin-3-yl]-3-(4-phenoxy-phenyl)-urea] the figure was 2.74 µM.
With `COc1cc2ncnc(N3CCC(NC(=O)Nc4ccc(N(C)C)cc4)C3)c2cc1OC` (centres unmarked) [Compound 52, 1-[1-(6,7-Dimethoxy-quinazolin-4-yl)-pyrrolidin-3-yl]-3-(4-dimethylamino-phenyl)-urea] the figure was 22.7 µM; with `COc1cc2ncnc(N3CCC(NC(=O)Nc4ccc(OC5CCCC5)cc4)C3)c2cc1OC` (centres unmarked) [Compound 53, 1-(4-Cyclopentyloxy-phenyl)-3-[1-(6,7-dimethoxy-quinazolin-4-yl)-pyrrolidin-3-yl]-urea], 4.07 µM.
`COc1cc2ncnc(N3CCC(OC(=O)Nc4ccc(OC5CCCC5)cc4)C3)c2cc1OC` (centres unmarked) [Compound 54, (4-Cyclopentyloxy-phenyl)-carbamic acid 1-(6,7-dimethoxy-quinazolin-4-yl)-pyrrolidin-3-yl ester] showed an IC50 of 44.6 µM.
To `COc1cc2ncnc(N3CCC(OC(=O)Nc4ccc(OC5CCCC5)cc4)CC3)c2cc1OC` [Compound 55, (4-Cyclopentyloxy-phenyl)-carbamic acid 1-(6,7-dimethoxy-quinazolin-4-yl)-piperidin-4-yl ester] belongs over 46 µM; to `COc1cc2ncnc(N3CCC(COC(=O)Nc4ccc(OC5CCCC5)cc4)CC3)c2cc1OC` [Compound 56, (4-Cyclopentyloxy-phenyl)-carbamic acid 1-(6,7-dimethoxy-quinazolin-4-yl)-piperidin-4-ylmethyl ester], 6.58 µM.
